Assays:
Format in all cases: cell-based
[1] = test system: palmitate-oleate induced steatotic HepG2 cells; test: Reduction of Oil Red O stain in palmitate-oleate induced steatotic HepG2 cells; conditions: Homo sapiens, PO-BSA 1 mM, 24 h, test materials 12.5-50 μM
Method: (§1) Induction of steatosis was done in accordance with the protocol of Hetherington and coworkers, Cell Physiol Biochem. 39:1648-62 (2016), with slight modification. HepG2 cells were loaded in 24-well cell culture plates at a density of 4×10^4 cells/well and kept overnight. On the next day, the media were replaced with fresh media containing PO-BSA at 1 mM concentration, with or without test materials (12.5-50 μM) dissolved in DMSO. The cells supplemented with media containing only BSA (instead of PO-BSA) and treated with DMSO (FIG. 2A) served as the normal control. The cells supplemented with media containing PO-BSA and treated with DMSO (FIG. 2B) served as negative control. Fenofibrate (12.5-50 μM) (FIG. 2C) was used as the positive control. After 24 h of treatment, the cells were taken for the analyses.
After treatment, the amount of lipids accumulated into the cells was measured using ORO staining. Briefly, 24 h after treatment, the spent media was removed and the cells were fixed by incubating them with 10% formalin in PBS for 1 h at room temperature. Each well was washed with 60% aqueous isopropanol and was allowed to dry. […] Cell morphology was assessed and photographed (400×) using an inverted microscope. The ORO stain was eluted with 100% isopropanol and measured at 500 nm. […] The results were expressed as the percentage of absorbance of the sample to the absorbance of the control blank.

HepG2 cells = test: MTT toxicity assay; conditions: 24 h; for GI50: Homo sapiens, test materials 100-500 μM, linear regression
Method: The cytotoxic effect was analyzed by using the MTT assay as described by Mosmann, J. Immunol Methods. 65:55-63 (1983), with minor modification. HepG2 cells were seeded at 5×10^3 cells/well into a 96-well plate and incubated for 24 h. Spent media was then replaced with fresh media containing test materials (100-500 μM) dissolved in DMSO. Vehicle control cells were treated only with DMSO. The plates were incubated in a CO2 incubator for 24 h. The spent media was then replaced with sterile MTT solution (5 mg/mL in PBS at pH—7.4; 100 μL/well) and incubated for another 3 h. The unreacted MTT dye was removed, and the formazan crystals were dissolved with DMSO (200 μL/well) and kept in dark for 30 min. The resulting purple color was quantified by measuring absorbance at 570 nm. The assays were performed thrice and the results were expressed in percentage in comparison to vehicle-treated cells. The following formula was used for calculation.
[formula] GI50 values were calculated using linear regression analysis.

[2] = test system: palmitate-oleate induced steatotic HepG2 cells; test: ALT leakage of palmitate-oleate induced HepG2 cells; conditions: 24 h
Method: as §1
(§2) After treatment, the cells were harvested and lysed using 1×PBS under sonication at 3× for five second intervals at 40V setting over ice. The cell lysates were taken and estimated for TG and protein using commercial spectrophotometric kits. TG levels were normalized to the protein content, and results were expressed as mg TG/g protein. The MDA levels in the cell lysate were estimated using a commercial spectrophotometric kit. The levels of ALT were measured in the spent media, and cell lysate and percent ALT leakage was calculated using the following formula: […]

[3] = test system: palmitate-oleate induced steatotic HepG2 cells; test: Triglyceride accumulation in palmitate-oleate induced HepG2 cells; conditions: 50 μM, 24 h
Method: as §1, §2

[4] = test system: palmitate-oleate induced steatotic HepG2 cells; test: Lipoperoxide formation (MDA/TBARS) in palmitate-oleate induced HepG2 cells; conditions: 50 μM, 24 h
Method: as §1, §2

Row | SMILES | EC50 [1] | GI50 (HepG2 cells) | ALT leakage [2] | triglyceride level [3] | toxicity compared with AN (MTT assay) (HepG2 cells) | lipoperoxide formation [4]
1 | C=C1CC[C@@H]2[C@](C)(CO)[C@H](O)CC[C@@]2(C)[C@@H]1C/C=C1/C(=O)OC[C@H]1O [AN, Andrographolide] | 43.3 µM | 254 µM | – | – | – | –
2 | CCC(=O)OCC1(C)[C@H](O)CC[C@@]2(C)C3C[C@@H](C4=CCOC4=O)O[C@]3(C)CC[C@H]12 (some centres unmarked) [IAN-19P, isoandrographolide-19-propionate] | 8.92 µM | 27000 µM | lowered ALT leakage | come to normal | comparatively lower toxicity than AN | significantly lowered

From patent US10064841B1, “Isoandrographolide-19-propionate for treatment of non-alcoholic fatty liver disease (NAFLD)” (KING SAUD UNIVERSITY, priority 2018, dated 2018)
